From patent US12448388B2, “PRMT5 inhibitors and uses thereof” (Gilead Sciences, Inc., priority 2023, dated 2025)
Where “and” joins values, the source holds several entries; their conditions need not be identical. Identical values can stand only once. Like-named read-outs stand apart in the source and are kept apart here.

What was measured:
[1] = tested on: Calu-6 (lung, adenocarcinoma; MTAP-WT); assay: In vitro cell viability assay (CellTiter-Glo, 9 days), Calu-6; assay type: cell-based; settings: Homo sapiens, Calu-6, 216 h, 9-day treatment
Method: (§1) Some Compounds of the Disclosure were tested in Calu-6 (Vendor: ATCC; Cat #HTB-56; Description: lung, adenocarcinoma), LU99 (Vendor: JCRB; Cat #JCRB0080; Description: lung, giant cell carcinoma), SW780 (Vendor: ATCC; Cat #CRL-2169; Description: bladder, urothelial carcinoma), and BxPC-3 (Vendor: ATCC; Cat #CRL-1687; Description: pancreas, adenocarcinoma) cellular viability assays according to the general protocol. Seeded cells into 96-well plate and incubated overnight. Seeded an additional 10 wells per cell line in an additional 96-well plate for assessing Time Zero luminescence and incubated overnight. To treatment plates, added compounds into each well using Tecan D300e dispenser (nine three-fold dilutions starting at […]) and incubated for 9 days. Time Zero (no compound treatment, luminescence assessed on day 1) and 9-day treatment (luminescence assessed on day 10) plates were assessed using the same CellTiter-Glo® substrate protocol. Thawed CellTiter-Glo® Buffer and lyophilized CellTiter-Glo® substrate and equilibrated to room temperature prior to use. Transferred 100 ml CellTiter-Glo® Buffer into amber bottle containing CellTiter-Glo® substrate to reconstitute the lyophilized enzyme/substrate mixture. For Time Zero and 9-day treatment plates, removed all plating media. Added 100 μl fresh media/well. Added 100 μl CellTiter-Glo® Reagent per well. Mixed contents for 10 min on an orbital shaker to lyse cells. Recorded luminescence with Perkin Elmer Envision 2105 machine. Analyzed the data with GraphPad software.

[2] = Hepatocyte stability assay, cynomolgus monkey; assay type: in vitro ADME
Method: BioreclamationIVT (Baltimore, MD) provided the cryopreserved hepatocytes, hepatocyte thawing (HT) medium, and Krebs-Henseleit buffer (KHB) medium. The stock solution concentration was 1 M in DMSO and was then diluted further in acetonitrile/water (1:1 v/v). All other chemicals were purchased from Sigma-Aldrich (St. Louis, MO) or Thermo Fisher Scientific (Waltham, MA).
The quench solution used to stop reactions in the hepatocyte incubations was comprised of 100% (v/v) acetonitrile. Internal Standard/Quench (IS/Q) solution used to stop reactions with the positive control also contained 200 nM Labetalol.
Metabolic Stability in Cryopreserved Hepatocytes: Test compounds, or the positive control metabolic substrate, was incubated in suspensions of cryopreserved hepatocytes at a final concentration of 1 μM. Vials containing cryopreserved hepatocytes were removed from liquid nitrogen and immediately immersed in a 37° C. water bath. The vials were swirled gently until the contents had thawed. They were then immediately emptied into 48 mL of pre-warmed thawing medium in a 50 mL conical tube. Cells remaining in the vial were re-suspended with 1.0 mL of pre-warmed thawing medium and added to the conical tube. The tube was capped and then gently inverted several times to re-suspend the hepatocytes. The cell suspension was centrifuged at 500×g for 10 minutes at room temperature and the supernatant discarded. The cell pellet was loosened by gently swirling the centrifuge tube. Non-supplemented KHB medium was added to obtain the appropriate target cell density. The viabilities of all cell preparations were ≥85%, assessed by Trypan blue dye exclusion.
For incubations, aliquots of hepatocyte suspension (250 μL containing a cell concentration of 2×10^6 cells/mL) were added to 250 μL of 2 μM substrate (test compound or positive control) in supplemented KHB in duplicate wells in a 24-well plate. Final concentration in the incubations were 1×10^6 cells/mL and 1 μM substrate. A cell-free control incubation (KHB only) was also included. The incubations were carried out with gentle shaking in a 37° C. incubator under a humid atmosphere of 95% air/5% CO2 (v/v). Aliquots (100 μL) were removed after 0, 1, 3, and 6 hours and added to 200 μL quenching solution. The samples were then placed on a shaker for 10 min followed by centrifugation at 3000×g for 20 min. The supernatant was transferred to a new plate and diluted with 100 μL of water to reduce the organic content and then placed on a shaker for 10 mins. Samples were injected and analyzed with methods described below.
Liquid Chromatography: Quantification of positive control and test compound was performed by analyte/internal standard peak area ratios (PAR) measured on a Thermo Scientific™ Q Exactive™ Hybrid Quadrupole-Orbitrap Mass Spectrometer MS/MS with an electrospray interface operating in positive ion mode. The mass spectrometer was coupled to a Dionex Ultimate® 3000 HPLC system. Samples (10 μL aliquots) were injected with a Leap Technologies HTC PAL autosampler. For positive control, the column used was a Thermo Scientific™ Hypersil GOLD™ HPLC column ([…], 50×2.1 mm). Mobile phase A consisted of 95% (v/v) water, 5% (v/v) acetonitrile, and contained 0.1% (v/v) formic acid (FA). Mobile phase B consisted of 95% (v/v) acetonitrile, 5% (v/v) water, and contained 0.1% (v/v) FA. Elution was achieved, at a flow rate of 0.5 mL/min, by a series of linear gradients: initial condition was 5% B at 0 min, isocratic for 20 seconds; then linear gradient to 95% B over 90 seconds, followed by isocratic for 60 seconds at 95% B, and re-equilibrated to initial conditions over 70 seconds.
Metabolic stabilities of positive control and test compound were determined by measuring the rates of disappearance of the parent with time by determining the % of parent remaining at time t (Ct) {Obach 1997}.
Data (% of parent remaining) were plotted on a semi-log scale and fitted using an exponential fit: […]

[3] = PK data (IV/PO) in cynomolgus monkey; settings: in vivo; for clearance: read-out: Observed CL (converted); for Vd: read-out: Vss; for bioavailability: PO 0.5 mg/Kg
[4] = tested on: LU99 (lung, giant cell carcinoma; MTAP-Deleted); assay: In vitro cell viability assay (CellTiter-Glo, 9 days), LU99; assay type: cell-based; settings: Homo sapiens, Lu-99, 216 h, 9-day treatment
Method: as §1

Row | GI50 [1] | Predicted Hepatocyte CL [2] | half-life ([3]; IV 0.25 mg/Kg) | clearance ([3]; IV 0.25 mg/Kg) | Vd ([3]; IV 0.25 mg/Kg) | GI50 [4] | half-life ([3]; IV 0.33 mg/Kg) | clearance ([3]; IV 0.33 mg/Kg) | Vd ([3]; IV 0.33 mg/Kg) | half-life ([3]; IV 0.5 mg/Kg) | clearance ([3]; IV 0.5 mg/Kg) | Vd ([3]; IV 0.5 mg/Kg) | bioavailability [3] | SMILES
1 | 2510 nM | 4.17 mL/min/kg | 10.7 h | 2.17 mL/min/kg | 2 L/kg | 10 nM |  |  |  |  |  |  |  | Nc1nc2cnc(C(=O)N3CCC[C@@H]4Oc5cc(OC(F)(F)F)cc(F)c5[C@@H]43)cc2n2cncc12 (single isomer, unassigned) [Fg-55]
2 |  | 15.3 mL/min/kg |  |  |  |  | 1.39 h | 24.5 mL/min/kg | 1.93 L/kg |  |  |  |  | Cc1ncn2c1c(N)nc1cnc(C(=O)N3CCC[C@@H]4Oc5cc(C(F)(F)F)ccc5[C@@H]43)cc12 [Ff-499, (4-amino-3-methylimidazo[1,5-a]pyrido[3,4-e]pyrazin-8-yl)((4aS,9bS)-7-(trifluoromethyl)-3,4,4a,9b-tetrahydrobenzofuro[3,2-b]pyridin-1(2H)-yl)methanone]
3 | 2150 nM | 4.83 mL/min/kg and 4.67 mL/min/kg | 10.4 h | 1.67 mL/min/kg | 1.47 L/kg | 4 nM |  |  |  | 11 h | 3.17 mL/min/kg | 1.7 L/kg | 108% | Nc1nc2cc(F)c(C(=O)N3CCC[C@@H]4Oc5cc(C(F)(F)F)ccc5[C@@H]43)cc2n2cncc12 [Ff-104, (4-amino-7-fluoroimidazo[1,5-a]quinoxalin-8-yl)((4aS,9bS)-7-(trifluoromethyl)-3,4,4a,9b-tetrahydrobenzofuro[3,2-b]pyridin-1(2H)-yl)methanone]
4 | 2150 nM |  |  |  |  | 11 nM |  |  |  |  |  |  |  | C[C@@H]1CN(C(=O)c2cc3c(cc2F)nc(N)c2cncn23)[C@H]2c3ccc(OC(F)(F)F)cc3C[C@H]2O1 (single isomer, unassigned) [Ff-183]
5 | 2440 nM | 5.67 mL/min/kg | 8 h | 3.33 mL/min/kg | 2.15 L/kg | 13 nM |  |  |  |  |  |  |  | Nc1nc2cnc(C(=O)N3CCC[C@@H]4Oc5cc(OC(F)(F)F)ccc5[C@@H]43)cc2n2cncc12 [Ff-341, (4-aminoimidazo[1,5-a]pyrido[3,4-e]pyrazin-8-yl)((4aS,9bS)-7-(trifluoromethoxy)-3,4,4a,9b-tetrahydrobenzofuro[3,2-b]pyridin-1(2H)-yl)methanone]
6 | 1550 nM |  |  |  |  | 7 nM |  |  |  |  |  |  |  | Nc1nc2cnc(C(=O)N3CCC[C@@H]4Oc5cc(C(F)(F)F)ccc5[C@@H]43)cc2n2cncc12 [Ff-110, (4-aminoimidazo[1,5-a]pyrido[3,4-e]pyrazin-8-yl)((4aS,9bS)-7-(trifluoromethyl)-3,4,4a,9b-tetrahydrobenzofuro[3,2-b]pyridin-1(2H)-yl)methanone]
7 | 1260 nM | 3 mL/min/kg | 15.4 h | 2 mL/min/kg | 2.53 L/kg | 6 nM |  |  |  |  |  |  | 84% | Nc1nc2cnc(C(=O)N3CCC[C@@H]4Oc5cc(C(F)(F)F)cc(F)c5[C@@H]43)cc2n2cncc12 (single isomer, unassigned) [Fg-53]
8 | 1660 nM |  |  |  |  | 9 nM |  |  |  |  |  |  |  | Nc1nc2cnc(C(=O)N3CC4(CC4)C[C@@H]4Oc5cc(C(F)(F)F)ccc5[C@@H]43)cc2n2cncc12 [Ff-648, (4-aminoimidazo[1,5-a]pyrido[3,4-e]pyrazin-8-yl)((4aS,9bS)-7-(trifluoromethyl)-4a,9b-dihydro-2H-spiro[benzofuro[3,2-b]pyridine-3,1′-cyclopropan]-1(4H)-yl)methanone]
9 | > 10000 nM | 2.5 mL/min/kg |  |  |  | 19 nM |  |  |  | 16 h | 3 mL/min/kg | 1.77 L/kg | 123% | C[C@H]1CN(C(=O)c2cc3c(cc2F)nc(N)c2cncn23)[C@H]2c3ccc(C(F)(F)F)cc3C[C@H]2O1 (single isomer, unassigned) [Ff-81]
10 | 2950 nM | 3.3 mL/min/kg |  |  |  | 17 nM | 5.8 h | 4 mL/min/kg | 1.9 L/kg |  |  |  |  | Cc1ncc2c(N)nc3cnc(C(=O)N4CCC[C@@H]5Oc6cc(OC(F)(F)F)ccc6[C@@H]54)cc3n12 [Ff-340, (4-amino-1-methylimidazo[1,5-a]pyrido[3,4-e]pyrazin-8-yl)((4aS,9bS)-7-(trifluoromethoxy)-3,4,4a,9b-tetrahydrobenzofuro[3,2-b]pyridin-1(2H)-yl)methanone]
11 | > 6400 nM | 4.67 mL/min/kg |  |  |  | 8 nM | 5.9 h | 2.5 mL/min/kg | 1.29 L/kg |  |  |  |  | Nc1nc2ccc(C(=O)N3CCC[C@@H]4Oc5cc(C(F)(F)F)ccc5[C@@H]43)cc2n2cncc12 [Ff-111, (4-aminoimidazo[1,5-a]quinoxalin-8-yl)((4aS,9bS)-7-(trifluoromethyl)-3,4,4a,9b-tetrahydrobenzofuro[3,2-b]pyridin-1(2H)-yl)methanone]
